Patent publication US20220323406A1, “METHODS AND COMPOSITIONS FOR DIFFERENTIATING STEM CELLS” (Massachusetts Institute of Technology, priority 2019, published 2022)

Legend:
Settings in all cases: primary screen
[1] = test system: ENR+CD organoids (ISC to Paneth cell differentiation); test: Primary screen: basal (non-stimulated) lysozyme secretion LYZ.NS, 2.5-D 384-well ENR+CD organoid differentiation; format: cell-based, mouse
Text: (§1) High-throughput screening.

[2] = test system: ENR+CD organoids (ISC to Paneth cell differentiation); test: Primary screen: CCh-stimulated lysozyme secretion LYZ.S, 2.5-D 384-well ENR+CD organoid differentiation; format: cell-based, mouse
Text: as §1

[3] = test system: ENR+CD organoids; test: Primary screen: ATP (CellTiter-Glo 3D, CTG) cell number/viability, 2.5-D 384-well ENR+CD organoids;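 note: compounds given at plating and again on day 3 over a 6-day differentiation from ENR+CV stem-cell-enriched precursors, ATP measured on day 6, plate median as control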
[4] = 1st dose row of the treatment (0.08 uM by row order; dose not reprinted)
[5] = 2nd dose row of the treatment (0.40 uM by row order; dose not reprinted)
[6] = 3rd dose row of the treatment (2.00 uM by row order; dose not reprinted)
[7] = 4th dose row of the treatment (10.00 uM by row order; dose not reprinted)

Compound | SSMD.LYZ.NS_Rep (strictly standardized mean difference) [1, 4] | SSMD.LYZ.NS_Rep (strictly standardized mean difference) [1, 5] | SSMD.LYZ.NS_Rep (strictly standardized mean difference) [1, 6] | SSMD.LYZ.NS_Rep (strictly standardized mean difference) [1, 7] | Dose.FC.LYZ.NS ([1]; dose 0.08 uM) [log2 fold change] | Z.LYZ.NS (standard z score) ([1]; dose 0.08 uM) | Dose.FC.LYZ.NS ([1]; dose 0.40 uM) [log2 fold change] | Z.LYZ.NS (standard z score) ([1]; dose 0.40 uM) | Dose.FC.LYZ.NS ([1]; dose 2.00 uM) [log2 fold change] | Z.LYZ.NS (standard z score) ([1]; dose 2.00 uM) | Dose.FC.LYZ.NS ([1]; dose 10.00 uM) [log2 fold change] | Z.LYZ.NS (standard z score) ([1]; dose 10.00 uM) | SSMD.LYZ.S_Rep (strictly standardized mean difference) [2, 4] | Z.LYZ.S (standard z score) [2, 4] | SSMD.LYZ.S_Rep (strictly standardized mean difference) [2, 5] | Z.LYZ.S (standard z score) [2, 5] | SSMD.LYZ.S_Rep (strictly standardized mean difference) [2, 6] | Z.LYZ.S (standard z score) [2, 6] | SSMD.LYZ.S_Rep (strictly standardized mean difference) [2, 7] | Z.LYZ.S (standard z score) [2, 7] | further results
CN1CCc2cc3c(cc2[C@H]1[C@@H]1OC(=O)c2c1ccc1c2OCO1)OCO3 [(+)-Bicuculline] | 0.481 | 0.106 | 0.276 | 0.175 | 0.092 | 0.805 | 0.013 | 0.116 | 0.031 | 0.270 | 0.020 | 0.176 | 0.545 | 1.005 | 0.216 | 0.221 | −0.164 | −0.169 | 0.264 | 0.465 | Dose.FC.LYZ.S ([2]; dose 0.08 uM): 0.155 log2 fold change; Dose.FC.LYZ.S ([2]; dose 0.40 uM): 0.034 log2 fold change; Dose.FC.LYZ.S ([2]; dose 2.00 uM): −0.026 log2 fold change; Dose.FC.LYZ.S ([2]; dose 10.00 uM): 0.072 log2 fold change; SSMD.CTG.Rep (strictly standardized mean difference) [3, 4]: 0.472; SSMD.CTG.Rep (strictly standardized mean difference) [3, 5]: −0.078; SSMD.CTG.Rep (strictly standardized mean difference) [3, 6]: −0.237; SSMD.CTG.Rep (strictly standardized mean difference) [3, 7]: −0.405; Dose.FC.CTG ([3]; dose 0.08 uM): 0.318 log2 fold change; Z.CTG (standard z score) ([3]; dose 0.08 uM): 0.760; Dose.FC.CTG ([3]; dose 0.40 uM): −0.029 log2 fold change; Z.CTG (standard z score) ([3]; dose 0.40 uM): −0.069; Dose.FC.CTG ([3]; dose 2.00 uM): −0.166 log2 fold change; Z.CTG (standard z score) ([3]; dose 2.00 uM): −0.396; Dose.FC.CTG ([3]; dose 10.00 uM): −0.132 log2 fold change; Z.CTG (standard z score) ([3]; dose 10.00 uM): −0.315
C[C@H](Oc1cc(-c2cnn(C3CCNCC3)c2)cnc1N)c1c(Cl)ccc(F)c1Cl [(S)-crizotinib] | 0.838 | 0.094 | −0.229 | −0.438 | 0.193 | 1.679 | 0.009 | 0.081 | −0.034 | −0.294 | −0.068 | −0.588 | 0.881 | 0.808 | 0.084 | 0.103 | −0.343 | −0.383 | −0.491 | −0.720 | Dose.FC.LYZ.S ([2]; dose 0.08 uM): 0.125 log2 fold change; Dose.FC.LYZ.S ([2]; dose 0.40 uM): 0.016 log2 fold change; Dose.FC.LYZ.S ([2]; dose 2.00 uM): −0.059 log2 fold change; Dose.FC.LYZ.S ([2]; dose 10.00 uM): −0.111 log2 fold change; SSMD.CTG.Rep (strictly standardized mean difference) [3, 4]: 0.742; SSMD.CTG.Rep (strictly standardized mean difference) [3, 5]: 0.190; SSMD.CTG.Rep (strictly standardized mean difference) [3, 6]: 0.285; SSMD.CTG.Rep (strictly standardized mean difference) [3, 7]: 0.034; Dose.FC.CTG ([3]; dose 0.08 uM): 0.241 log2 fold change; Z.CTG (standard z score) ([3]; dose 0.08 uM): 0.575; Dose.FC.CTG ([3]; dose 0.40 uM): 0.054 log2 fold change; Z.CTG (standard z score) ([3]; dose 0.40 uM): 0.130; Dose.FC.CTG ([3]; dose 2.00 uM): 0.111 log2 fold change; Z.CTG (standard z score) ([3]; dose 2.00 uM): 0.266; Dose.FC.CTG ([3]; dose 10.00 uM): 0.019 log2 fold change; Z.CTG (standard z score) ([3]; dose 10.00 uM): 0.046
C=C1C(=O)O[C@H]2[C@H]1CC/C(C)=C/CC[C@@]1(C)O[C@@H]21 [(−)-Parthenolide] | 0.601 | 0.480 | 0.920 | 0.998 | 0.058 | 0.506 | 0.067 | 0.583 | 0.089 | 0.776 | 0.133 | 1.159 | 0.679 | 0.799 | 0.763 | 1.067 | 0.506 | 0.441 | 0.345 | 0.530 | Dose.FC.LYZ.S ([2]; dose 0.08 uM): 0.124 log2 fold change; Dose.FC.LYZ.S ([2]; dose 0.40 uM): 0.165 log2 fold change; Dose.FC.LYZ.S ([2]; dose 2.00 uM): 0.068 log2 fold change; Dose.FC.LYZ.S ([2]; dose 10.00 uM): 0.082 log2 fold change; SSMD.CTG.Rep (strictly standardized mean difference) [3, 4]: 0.498; SSMD.CTG.Rep (strictly standardized mean difference) [3, 5]: 0.736; SSMD.CTG.Rep (strictly standardized mean difference) [3, 6]: 0.482; SSMD.CTG.Rep (strictly standardized mean difference) [3, 7]: 0.257; Dose.FC.CTG ([3]; dose 0.08 uM): 0.135 log2 fold change; Z.CTG (standard z score) ([3]; dose 0.08 uM): 0.322; Dose.FC.CTG ([3]; dose 0.40 uM): 0.228 log2 fold change; Z.CTG (standard z score) ([3]; dose 0.40 uM): 0.544; Dose.FC.CTG ([3]; dose 2.00 uM): 0.157 log2 fold change; Z.CTG (standard z score) ([3]; dose 2.00 uM): 0.376; Dose.FC.CTG ([3]; dose 10.00 uM): 0.157 log2 fold change; Z.CTG (standard z score) ([3]; dose 10.00 uM): 0.374
N#Cc1c(O)c2c(-c3ccc(-c4ccccc4O)cc3)csc2[nH]c1=O [A-769662] | 0.286 | 0.498 | 0.554 | 0.068 | 0.045 | 0.394 | 0.069 | 0.599 | 0.054 | 0.473 | 0.009 | 0.075 | 0.365 | 0.426 | 0.472 | 0.460 | 0.488 | 1.191 | 0.119 | 0.121 | Dose.FC.LYZ.S ([2]; dose 0.08 uM): 0.066 log2 fold change; Dose.FC.LYZ.S ([2]; dose 0.40 uM): 0.071 log2 fold change; Dose.FC.LYZ.S ([2]; dose 2.00 uM): 0.184 log2 fold change; Dose.FC.LYZ.S ([2]; dose 10.00 uM): 0.019 log2 fold change; SSMD.CTG.Rep (strictly standardized mean difference) [3, 4]: −0.255; SSMD.CTG.Rep (strictly standardized mean difference) [3, 5]: 0.019; SSMD.CTG.Rep (strictly standardized mean difference) [3, 6]: −0.312; SSMD.CTG.Rep (strictly standardized mean difference) [3, 7]: −0.056; Dose.FC.CTG ([3]; dose 0.08 uM): −0.074 log2 fold change; Z.CTG (standard z score) ([3]; dose 0.08 uM): −0.177; Dose.FC.CTG ([3]; dose 0.40 uM): 0.007 log2 fold change; Z.CTG (standard z score) ([3]; dose 0.40 uM): 0.016; Dose.FC.CTG ([3]; dose 2.00 uM): −0.127 log2 fold change; Z.CTG (standard z score) ([3]; dose 2.00 uM): −0.304; Dose.FC.CTG ([3]; dose 10.00 uM): −0.015 log2 fold change; Z.CTG (standard z score) ([3]; dose 10.00 uM): −0.036
